Each structure is given as a SMILES string.

Holding throughout (settings): temperature: 37 °C
Experiment [1] relates to Candida glabrata ZIM 2385 (RPMI). Nature of the experiment: Bliss independence sum of statistically significant ΔE (measured minus predicted growth inhibition) over checkerboard surface (fraction (sum of ΔE; 1 = 100%)); higher = more synergy.
For experiment [2], the system named is Candida glabrata ZIM 2382 (RPMI). Described as above.
For experiment [3], the system named is Candida glabrata ZIM 2369 (RPMI). The experiment is described as above.
Experiment [4] deals with Saccharomyces cerevisiae ZIM 2255 (RPMI). The description is as above.
For experiment [5], the system named is Candida glabrata ZIM 2365 (RPMI). Described as above.
Experiment [6] deals with Saccharomyces cerevisiae ZIM 2558 (RPMI). The experiment is described as above.
Experiment [7] relates to Saccharomyces cerevisiae ZIM 2566 (RPMI). The description is as above.
Experiment [8] deals with Candida glabrata ZIM 2344 (RPMI). The description is as above.
Experiment [9] relates to Saccharomyces cerevisiae ZIM 2247 (RPMI). Described as above.
For experiment [10], the system named is Candida glabrata ZIM 2389 (RPMI). The description is as above.
The test system of experiment [11] is Saccharomyces cerevisiae ZIM 2269 (RPMI). Described as above.
For experiment [12], the system named is Candida glabrata ZIM 2385 (RPMI). Kind of experiment: FICI maximum (fractional inhibitory concentration index, Loewe) (dimensionless); higher = less synergy / more antagonism. How it is done:
(§1)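 CLSI M27-A3 checkerboard broth microdilution of an immunomodulatory drug (or amoxicillin) combined with an antifungal against S. cerevisiae and C. glabrata isolates. Growth was read as OD600 after incubation at 37 °C (48 h for the reported MICs). Reported quantities are the FICI (Loewe: MIC50 for azoles and immunomodulators, MIC90 for AMB; ≤0.5 synergy, ≥4 antagonism), as minimum and maximum over the surface, and the Bliss-independence sum of statistically significant ΔE (positive = synergy). Clinical isolates were tested in RPMI; C. glabrata ATCC 2001 and its pdr1Δ mutant were tested in YPD.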

For experiment [13], the system named is Candida glabrata ZIM 2382 (RPMI). The description is as above. How it is done: as §1
The test system of experiment [14] is Candida glabrata ZIM 2369 (RPMI). The description is as above. How it is done:
as §1

The test system of experiment [15] is Saccharomyces cerevisiae ZIM 2255 (RPMI). The experiment is described as above. How it is done: as §1
The test system of experiment [16] is Candida glabrata ZIM 2365 (RPMI). The description is as above. As to the method:
as §1

For experiment [17], the system named is Saccharomyces cerevisiae ZIM 2558 (RPMI). Described as above. How it is done:
as §1

Experiment [18] deals with Saccharomyces cerevisiae ZIM 2566 (RPMI). The experiment is described as above. How it is done:
as §1

The subject of experiment [19] is Candida glabrata ZIM 2344 (RPMI). The experiment is described as above. How it is done: as §1
The subject of experiment [20] is Saccharomyces cerevisiae ZIM 2247 (RPMI). Described as above. How it is done:
as §1

The subject of experiment [21] is Candida glabrata ZIM 2389 (RPMI). Described as above. How it is done:
as §1

In experiment [22] the test system is Saccharomyces cerevisiae ZIM 2269 (RPMI). The description is as above. As to the method: as §1
Experiment [23] has as its system Candida glabrata ZIM 2385 (RPMI). Nature of the experiment: FICI minimum (fractional inhibitory concentration index, Loewe) (dimensionless); higher = less synergy / more antagonism. As to the method: as §1
Experiment [24] deals with Candida glabrata ZIM 2382 (RPMI). Described as above. How it is done:
as §1

In experiment [25] the test system is Candida glabrata ZIM 2369 (RPMI). The experiment is described as above. As to the method: as §1
The subject of experiment [26] is Saccharomyces cerevisiae ZIM 2255 (RPMI). The experiment is described as above. How it is done: as §1
The test system of experiment [27] is Candida glabrata ZIM 2365 (RPMI). The experiment is described as above. As to the method: as §1
For experiment [28], the system named is Saccharomyces cerevisiae ZIM 2558 (RPMI). The experiment is described as above. As to the method:
as §1

In experiment [29] the test system is Saccharomyces cerevisiae ZIM 2566 (RPMI). The description is as above. As to the method: as §1
Experiment [30] relates to Candida glabrata ZIM 2344 (RPMI). The description is as above. How it is done:
as §1

Experiment [31] deals with Saccharomyces cerevisiae ZIM 2247 (RPMI). The description is as above. How it is done: as §1
Experiment [32] deals with Candida glabrata ZIM 2389 (RPMI). Described as above. How it is done:
as §1

The test system of experiment [33] is Saccharomyces cerevisiae ZIM 2269 (RPMI). The experiment is described as above. How it is done: as §1
The test system of experiment [34] is Candida glabrata ATCC 2001 (YPD). Kind of experiment: Bliss independence sum of statistically significant ΔE (measured minus predicted growth inhibition) over checkerboard surface (fraction (sum of ΔE; 1 = 100%)); higher = more synergy.
Experiment [35] has the same test system. Nature of the experiment: FICI maximum (fractional inhibitory concentration index, Loewe) (dimensionless); higher = less synergy / more antagonism. How it is done:
as §1

Experiment [36] has the same test system. Nature of the experiment: FICI minimum (fractional inhibitory concentration index, Loewe) (dimensionless); higher = less synergy / more antagonism. How it is done:
as §1

Experiment [37] relates to Saccharomyces cerevisiae ZIM 2260 (RPMI). Kind of experiment: Bliss independence sum of statistically significant ΔE (measured minus predicted growth inhibition) over checkerboard surface (fraction (sum of ΔE; 1 = 100%)); higher = more synergy.
The test system is the same in experiment [38]. Kind of experiment: FICI maximum (fractional inhibitory concentration index, Loewe) (dimensionless); higher = less synergy / more antagonism. How it is done: as §1
Experiment [39] has the same test system. Kind of experiment: FICI minimum (fractional inhibitory concentration index, Loewe) (dimensionless); higher = less synergy / more antagonism. As to the method:
as §1

Regarding `CC1(C)S[C@@H]2[C@H](NC(=O)[C@H](N)c3ccc(O)cc3)C(=O)N2[C@H]1C(=O)O` [amoxicillin] + OC(Cn1cncn1)(Cn1cncn1)c1ccc(F)cc1F [fluconazole], the Bliss independence sum is 1.92 in experiment [1]; 0.34 in [2]; 1.02 in [3]; -2.93 in [4]; -0.019 in experiment [5]; 1.93 in [6]. Also, the Bliss independence sum in [7] is 0.455; in experiment [8], 0.963; in experiment [9], -1.44; in experiment [10], 2.98; in experiment [11], -1.87. Further, the FICI maximum is 1.5 in experiment [12]; 1.25 in experiment [13]; 1.25 in [14]; 2.12 in experiment [15]; 1.25 in [16]; 1.25 in [17]. Also, the FICI maximum in [18] was 1.25; in experiment [19], 0.75; in [20], 2.12; in [21], 2.25; in experiment [22] it was 2. For the same compound, the FICI minimum came out at 1.02 in experiment [23]; 1.01 in experiment [24]; 1.01 in experiment [25]; 2.01 in experiment [26]; 1.01 in experiment [27]; 0.508 in experiment [28]. The FICI minimum in experiment [29] came to 0.516; in [30], 0.508; in [31] it was 1.02; in experiment [32], 1.02; in experiment [33], 1.03.

Turning to `COc1c(C)c2c(c(O)c1C/C=C(\C)CCC(=O)O)C(=O)OC2` [mycophenolic acid] + CC(=O)N1CCN(c2ccc(OCC3COC(Cn4ccnc4)(c4ccc(Cl)cc4Cl)O3)cc2)CC1 [ketoconazole], the Bliss independence sum in [34] is -2.13. For the same compound, the FICI maximum in experiment [35] came out at 4.12. For the same compound, in experiment [36], the FICI minimum came to 1.25.

`COc1c(C)c2c(c(O)c1C/C=C(\C)CCC(=O)O)C(=O)OC2` [mycophenolic acid] + CCC(C)n1ncn(-c2ccc(N3CCN(c4ccc(OCC5COC(Cn6cncn6)(c6ccc(Cl)cc6Cl)O5)cc4)CC3)cc2)c1=O [itraconazole]: the Bliss independence sum in experiment [1] is 3.12; in experiment [2], 0.427; in experiment [3] it was -0.825; in experiment [4] it was 2.31; in experiment [5] it was 0.327; in [6], -4.07. Also, the Bliss independence sum in experiment [8] was 10; in experiment [9], -0.0362; in experiment [37], -2.11; in experiment [10], 4.83; in [11], 0.69. The FICI maximum came out at 1.02 in experiment [12]; 0.75 in experiment [13]; 2.25 in [14]; 1.13 in [15]; 4.12 in [16]; 4.25 in experiment [17]. The FICI maximum in experiment [19] was 1.62; in [20] it was 2.53; in experiment [38], 2.16; in experiment [21], 1.25; in experiment [22], 1.25. Also, the FICI minimum was found to be 0.508 in experiment [23]; 0.508 in experiment [24]; 1.01 in experiment [25]; 0.517 in [26]; 0.516 in experiment [27]; 2.01 in experiment [28]. The FICI minimum was 0.174 in experiment [30]; 1.02 in experiment [31]; 1 in experiment [39]; 0.508 in experiment [32]; 1.03 in [33].

In the case of `COc1c(C)c2c(c(O)c1C/C=C(\C)CCC(=O)O)C(=O)OC2` [mycophenolic acid] + CC[C@@H]([C@H](C)O)n1ncn(-c2ccc(N3CCN(c4ccc(OC[C@@H]5CO[C@@](Cn6cncn6)(c6ccc(F)cc6F)C5)cc4)CC3)cc2)c1=O [posaconazole], the Bliss independence sum in experiment [34] is -3.21. Moreover, in experiment [35], the FICI maximum is 4.12. In [36], the FICI minimum was 1.5.

With `COc1c(C)c2c(c(O)c1C/C=C(\C)CCC(=O)O)C(=O)OC2` [mycophenolic acid] + C[C@@H](c1ncncc1F)[C@](O)(Cn1cncn1)c1ccc(F)cc1F [voriconazole], the Bliss independence sum in experiment [34] was -2.31. Moreover, the FICI maximum in experiment [35] worked out at 2.5. In addition, the FICI minimum in experiment [36] was 1.06.
